In patent US9051240B2, “Substituted 2-[2-(phenyl) ethylamino] alkaneamide derivatives and their use as sodium and/or calcium channel modulators” (Newron Pharmaceuticals S.P.A., priority 2007, dated 2015):
Like-named read-outs stand apart in the source and are kept apart here.

Key:
TTXs sodium channels = assay: TTXs-sodium channel influx assay (fluorescence, ND7/23 cell line); assay type: cell-based, rat; settings: ND7/23 cells, veratridine 100 μM; read-out: Na+ influx IC50
Description: ND7/23 rat dorsal root ganglion-derived cell line endogenously expresses a mixed population of TTXs sodium channels. These cells lack of TTXr sodium channels as shown by the absence of their respective transcripts.
ND7/23 cells were grown in DMEM supplemented with 10% FBS and 1 mM sodium piruvate. The cells were seeded at 50,000 cells/well on 96 poly-L-lysine-coated plates and further incubated for 18-24 h before use.
The Membrane Potential Kit Assay (Molecular Devices), based on a negatively charged fluorescent dye able to monitor changes in membrane potential caused by the sodium influx due to the channel opening, was used for the assay.
Cells were incubated with the dye loading for 30 minutes at 25° C. Then, 100 nM of the toxin Anemonia sulcata (used as enhancer of the channel opener response) alone or in the presence of TTX (as reference standard) or test compound were added for further 15 minutes.
The fluorescence (excitation:530 nm, emission: 565 nm wavelength) was measured before and after (40-45 s) the automated injection of the sodium channel opener veratridine (100 μM) using a Victor plate reader (Perkin Elmer).
(§1) The inhibition curves were calculated from 5 concentrations, each in triplicate, and the IC50 determined using linear regression analysis.

L-type calcium channels = assay: Calcium channel influx assay (fluorescence, AtT20 cell line); assay type: cell-based, mouse; settings: AtT20 cells, 100 mM KCl depolarization; read-out: Ca++ influx IC50
Description: AtT20/D16v-F2 mouse pituitary tumour cell line preferentially expresses L-type calcium channels.
AtT20 cells were grown in DMEM with 10% of FBS, 4 mM glutamine. The cells were seeded at 200,000 cells/well on 96 poly-L-lysine-coated plates and further incubated for 18-24 h, before use.
The Ca^++ Kit Assay (Molecular Devices), which is based on a fluorescent calcium indicator to detect the calcium influx determined by depolarizing conditions, was used for the assay.
Cells were incubated with the calcium dye loading for 30 min at 37° C. Then, ω-conotoxin alone (1 μM) or in presence of nifedipine (as reference standard) or test compound were added for further 15 min.
The fluorescence (excitation: 485-emission: 535 nm wavelength) was measured before and after (30-40 sec) the automated injection of 100 mM KCl depolarizing solution using a Victor plate reader (Perkin Elmer).
as §1

[1] = biological target: Na+ currents in rat cortical neurons; assay: Patch clamp evaluation of Na+ currents blockade in rat cortical neurons; assay type: cell-based
Description: Cortical neurons were prepared from embryonic Wistar rats (E17-E19). A female rat at date 17-19 of pregnancy was anesthetized and sacrificed. The fetuses (n=4-5) were dissected and placed in ice-cold Hank's solution (Hank's solution (Life tech.14170-088)+glucose 30%+Pen-Strep 100× (Life Tech. 15140-122) 100U-100 μg/ml and Hepes-NaOH 5 mM). The uterus and placenta were removed, the fetuses were decapitated and the heads were placed in ice-cold Hank's solution. Cells were counted and diluted in Neurobasal medium to a concentration of 400000 cells per poly-D-lysine 5 μg/ml treated Petri dish. Cortical neurons were used from day 6th till day 11th after plating, and once a week Neurobasal medium was changed. Experiments on cortical neurons were carried out using standard whole cell patch clamp methods (Hamill et al., Pfugers Arch., 1981 August, 391(12), 85-100). Membrane currents were recorded and filtered at 5 kHz with an Axon Axopatch 200B amplifier and data digitized with an Axon Digidata 1322A (Axon Instruments, CA, USA). Protocol playing and data acquisition were controlled online with Axon pClamp8 software. Measuring and reference electrodes were AgCl-Ag electrodes. A Sutter Instrument P-87 Puller (CA, USA) was used for pulling patch clamp pipettes with a resistance of 2-3 MΩ from Harward borosilicate glass tubes. Cells were continuously superfused with extracellular solutions, using a solution changer Biologic RSC-200. To test the effect of compounds on sodium currents in cortical neurons, cells were clamped at -90 mV, then a two step protocol was used to determine the voltage dependence of the block. […] Tonic block of resting and depolarized currents at a given drug concentration, was calculated as the difference between the peak Na^+ current in the control external bath solution and peak currents with the test substance divided by control peak. Drug concentration-inhibition curves were obtained by plotting tonic blocks in the resting and depolarized condition, versus drug concentrations. Dose-response curves were fitted to the tonic block data, according to the logistic equation: […] Control bath solution contained (mM): […] Internal pipette solution consisted of (mM): […] Compounds were dissolved as stock solutions (20 mM) in DMSO. They were diluted to the final concentrations in the external solution.

MAO-B = MAO-B (Rattus norvegicus (Rat), UniProt P19643); assay: In vitro MAO-B enzyme activity assay (radioenzymatic, rat brain mitochondria); assay type: biochemical; settings: 14C-PEA 0.5 μM
Description: Male Wistar rats (Harlan, Italy weighing 175-200 g) were sacrificed under light anaesthesia and brains were rapidly removed and homogenized in 8 volumes of ice-cold 0.32 M sucrose buffer containing 0.1 M EDTA, pH 7.4. The crude homogenate was centrifuged at 2220 rpm for 10 minutes and the supernatant recovered. The pellet was homogenized and centrifuged again. The two supernatants were pooled and centrifuged at 9250 rpm for 10 minutes at +4° C. The pellet was resuspended in fresh buffer and centrifuged at 11250 rpm for 10 minutes at +4° C. The resulting pellet was stored at −80° C. The enzyme activity was assessed with a radioenzymatic assay using the substrate ^14C-phenylethylamine (PEA) specific for MAO-B. The mitochondrial pellet (500 μg protein) was resuspended in 0.1 M phosphate buffer (pH 7.4). 200 μl of the suspension were added to a 50 μl solution of the test compound or buffer, and incubated for 30 min at 37° C. (preincubation) then the substrate (50 μl) was added. The incubation was carried out for 10 minutes at 37° C. (^14C-PEA, 0.5 μM). The reaction was stopped by adding 0.2 ml of perchloric acid. After centrifugation, the deaminated metabolites were extracted with 3 ml of toluene and the radioactive organic phase containing the neutral and/or acidic metabolites formed as a result of MAO-B activity was measured by liquid scintillation spectrometry at 90% efficiency. The MAO-B activity was expressed as nmoles of substrate transformed/mg protein/min.

mice [2] = assay: Formalin test; assay type: in vivo; settings: Mus musculus, po
Description: According to a modified protocol from Rosland et al. (Rosland J. H., Tjolsen A., Maehle B., Hole K. Pain (1990) 42: 235-242), mice were injected subcutaneously (s.c.) with 20 μl of 2.7% solution of formalin into the plantar surface of left hindpaw and placed immediately into clear PVC observation chambers (23×12×13 cm). Pain behaviour was quantified by counting the cumulative licking time (s) of the injected paw. Measurements were taken during the early phase (0-5 min) and late phase (20-40 min) after formalin injection (Tjolsen A., Berge O. G., Hunskaar S., Rosland J. H., Hole K. Pain (1992) 51: 5-17).
The test compound was administered p.o. or s.c. 5-45 minutes before formalin injection in a volume of 10 ml/kg body weight to groups of 10 mice per dose. Control group was treated with vehicle.

mice [3] = assay: Maximal electroshock test (MES) in mice; assay type: in vivo; settings: Mus musculus, iv; mice, MES, i.v.; read-out: MES ED50 mg/kg i.v.
Description: The maximal electroshock test (MES) is used commonly in the screening of anti-epileptic drugs in rodent models.
Animals and Apparatus: Male CD1 mice weighing 25 g were used. The procedure described by White et al. (White H. S., Woodhead J. H., Franklin M. R., Swinyard E. A., and Wolf H. H. Antiepileptic Drugs (1995) 4th ed: 99-110, Raven Press, Ltd., New York) was followed. An Ugo Basile electroconvulsive generator (Model ECT UNIT 7801) was used to deliver an electrical stimulus sufficient to produce a hindlimb tonic extensor response in at least 97% of control animals. The stimulus was delivered intra-aurally through clip electrodes in mice (0.7 s of a 40 mA shock, with a pulse train of 80 Hz having a pulse duration of 0.4 ms). The acute effect of compounds administered intraperitoneally (i.p.), subcutaneously (s.c.), intravenously (i.v.) or orally (p.o.) 5-120 minutes before MES induction were examined and compared with a vehicle control group. Ten mice were studied per group. Complete suppression of the hindlimb tonic extensor component of seizures was taken as evidence of anticonvulsant activity.
The compounds of the invention were administered p.o. or i.v., at the doses of 0.1-100 mg/kg.

MAO-B, sequence (P19643 whole entry): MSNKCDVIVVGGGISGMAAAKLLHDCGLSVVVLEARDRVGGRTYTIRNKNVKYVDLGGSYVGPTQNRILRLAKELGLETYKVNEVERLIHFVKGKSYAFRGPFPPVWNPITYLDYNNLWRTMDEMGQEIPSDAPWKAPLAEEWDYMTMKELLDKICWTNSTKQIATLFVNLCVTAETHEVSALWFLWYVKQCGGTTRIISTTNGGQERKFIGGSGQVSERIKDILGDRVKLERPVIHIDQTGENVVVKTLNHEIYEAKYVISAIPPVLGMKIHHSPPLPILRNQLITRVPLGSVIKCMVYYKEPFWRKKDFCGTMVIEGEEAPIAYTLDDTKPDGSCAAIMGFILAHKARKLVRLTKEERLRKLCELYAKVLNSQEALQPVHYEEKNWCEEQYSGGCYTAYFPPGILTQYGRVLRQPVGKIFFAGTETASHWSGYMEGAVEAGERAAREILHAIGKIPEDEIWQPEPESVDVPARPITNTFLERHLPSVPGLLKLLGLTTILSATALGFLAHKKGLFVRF

IC50 (TTXs sodium channels): 7.4 µM
IC50 (L-type calcium channels): 33 µM
Ki ([1]; calculated from Kr and Kdep, read-out: Ki (apparent affinity for the inactivated state)): 3.6 µM
IC50 ([1]; preconditioning potential -110 mV, read-out: IC50 resting (Kr)): > 100 µM
IC50 ([1]; preconditioning potential ~-50 mV, read-out: IC50 depolarized): 7 µM
IC50 ([1]; resting condition, figure in parentheses after >100, read-out: IC50 resting (Kr), value in parentheses): 180 µM
IC50 (MAO-B): 100 nM
SMILES: C[C@H](NCc1ccc(OCc2cccc(F)c2)cc1)C(N)=O [safinamide, (S)-(+)-2-[4-(3-fluorobenzyloxy)-benzylamino]-propanamide]
ED50 (mice [2]): 69.4 mg/kg
ED50 (mice [3]): 4 mg/kg
